In patent US20090041839A1, “PHARMACEUTICAL COMPOSITIONS FOR THE TREATMENT OF PAIN” (priority 2007, published 2009):
Like-named read-outs stand apart in the source and are kept apart here.

Key:
adenosine A1 receptors = conditions: Li et al. 2003, U.S. Pat. No. 6,248,774 and No. 6,489,356, cited from earlier work
[1] = Single escalating dose, age and food-effect pharmacokinetic study of T-62 soft gelatin capsules (Example 11); assay type: in vivo; conditions: human, plasma, po; for AUC(0-inf) / Cmax / AUC(0-t): arithmetic mean (SD); for AUC(0-t): read-out: AUC0-48; for Tmax: median
Excerpt: A single-center, 3-part study: Parts A and B were randomized, double-blind, and placebo-controlled, and evaluated the safety, tolerability, and pharmacokinetics of single, escalating dose levels of a T-62 composition in soft gelatin capsules (oral dosage form 4) in young healthy subjects (Part A), and a single dose of a T-62 composition in soft gelatin capsules (oral dosage form 4) in elderly healthy subjects (Part B). In Part C, the effect of food on the bioavailability of a single dose of T-62 (oral dosage form 4) in young healthy subjects was evaluated in an open label, randomized, crossover fashion.
Part A: The dose escalation phase of the study consisted of 6 cohorts of 12 young (18-45 years of age) healthy volunteers, a total of 72 subjects, randomly assigned in a 3:1 allocation to receive a single dose of either T-62 or placebo under fasted conditions. For all cohorts, subjects fasted for a minimum of 7 hours pre-dose to 4 hours post-dose. Subjects in the first cohort received a single dose of 100 mg of T-62 (n=9) or placebo (n=3). Subsequent cohorts of 12 new subjects received placebo or a higher dose level of T-62: Nine subjects in each cohort received a total of 2×100, 4×100, 8×100, 10×100 or 12×100 mg capsules of T-62; three subjects per dose level received placebo.
Part B: A total of 15 elderly subjects (≧65 years of age) were randomly assigned in a 4:1 allocation to receive a single dose of 4×100 mg of T-62 (n=12) or placebo (n=3) under fasted conditions, i.e., subjects were fasted for a minimum of 7 hours pre-dose to 4 hours post-dose.
Part C: A single cohort of 16 young (18-45 years of age) healthy volunteers were enrolled to evaluate the effect of food on the bioavailability and pharmacokinetics of a single-dose of 4×100 mg soft gelatin capsules of T-62. Subjects were randomly assigned in a 1:1 allocation to 1 of 2 treatment sequences (i.e., fed/fasted or fasted/fed) in a crossover fashion.
Each subject in Parts A and B completed Screening, Baseline, Treatment, and Follow-Up Phases. The Screening Phase was conducted on an outpatient basis within 30 days, but no less than 3 days, prior to the start of the Baseline Phase. The Baseline Phase consisted of clinical research unit (CRU) admission and final qualification assessments. The Treatment Phase was comprised of dosing, post-treatment safety assessments, and blood collections. Subjects were discharged approximately 50 hours after study drug administration on Day 3. The Follow-Up Phase occurred 2 to 4 days after discharge from the CRU.
Each subject in Part C completed a Screening Phase, Baseline and Treatment Phases for both crossover Dosing Periods I and II, and a single Follow-Up Phase. The Screening Phase was conducted on an outpatient basis within 30 days, but no less than 3 days, prior to the start of the Baseline Phase for Dosing Period I. Each Baseline Phase consisted of CRU admission and final/continuing qualification assessments. Each Treatment Phase was comprised of dosing, post-treatment safety assessments, and blood collections. T-62 was administered and post-treatment assessments were conducted on Day 1 of Dosing Period I. Subjects were discharged approximately 50 hours after study drug administration on Day 3. Following a 3-day washout, subjects crossed over and entered Dosing Period II. Subjects were re-admitted to the CRU one day before T-62 administration in Dosing Period II for Baseline assessments. T-62 was be administered and post-treatment assessments were conducted on Day 1 of Dosing Period II. Subjects were discharged approximately 50 hours after study drug administration on Day 3. The Follow-Up Phase occurred 2 to 4 days after discharge from the CRU following Dosing Period II. For each Dosing period, subjects randomized to receive T-62 under fed conditions were given a high fat breakfast on Day 1 about half an hour prior to dosing. Fasting subjects were not allowed to eat any food beginning a minimum of 7 hours pre-dose to 4 hours post-dose. […]

[2] = 100 mg, Part A, young healthy subjects, fasted, single oral dose 100 mg (oral dosage form 4), n = 9
[3] = 200 mg, Part A, young healthy subjects, fasted, single oral dose 2 × 100 mg (oral dosage form 4), n = 9
[4] = 400 mg, Part A, young healthy subjects, fasted, single oral dose 4 × 100 mg (oral dosage form 4), n = 9
[5] = 400 mg, Part B, elderly healthy subjects, fasted, single oral dose 4 × 100 mg (oral dosage form 4), n = 12
[6] = 400 mg, Part C, Fasted, young healthy subjects, single oral dose 4 × 100 mg (oral dosage form 4), n = 14
[7] = 400 mg, Part C, Fed, young healthy subjects, single oral dose 4 × 100 mg (oral dosage form 4), n = 16
[8] = 800 mg, Part A, young healthy subjects, fasted, single oral dose 8 × 100 mg (oral dosage form 4), n = 9
[9] = 1000 mg, Part A, young healthy subjects, fasted, single oral dose 10 × 100 mg (oral dosage form 4), n = 9
[10] = 1200 mg, Part A, young healthy subjects, fasted, single oral dose 12 × 100 mg (oral dosage form 4), n = 9

AUC(0-inf) [1, 2]: 0.106 µg·h/mL
Cmax [1, 2]: 0.03 µg/mL
AUC(0-t) [1, 2]: 0.0922 µg·h/mL
Tmax [1, 2]: 2 h
AUC(0-inf) [1, 3]: 0.242 µg·h/mL
Cmax [1, 3]: 0.0477 µg/mL
AUC(0-t) [1, 3]: 0.224 µg·h/mL
Tmax [1, 3]: 1 h
AUC(0-inf) [1, 4]: 0.557 µg·h/mL
Cmax [1, 4]: 0.11 µg/mL
AUC(0-t) [1, 4]: 0.525 µg·h/mL
Tmax [1, 4]: 2 h
AUC(0-inf) [1, 5]: 1.29 µg·h/mL
Cmax [1, 5]: 0.227 µg/mL
AUC(0-t) [1, 5]: 1.2 µg·h/mL
Tmax [1, 5]: 1.8 h
AUC(0-inf) [1, 6]: 0.576 µg·h/mL
Cmax [1, 6]: 0.0958 µg/mL
AUC(0-t) [1, 6]: 0.533 µg·h/mL
Tmax [1, 6]: 2.3 h
AUC(0-inf) [1, 7]: 0.933 µg·h/mL
Cmax [1, 7]: 0.154 µg/mL
AUC(0-t) [1, 7]: 0.884 µg·h/mL
Tmax [1, 7]: 3.5 h
AUC(0-inf) [1, 8]: 1.02 µg·h/mL
Cmax [1, 8]: 0.165 µg/mL
AUC(0-t) [1, 8]: 0.978 µg·h/mL
Tmax [1, 8]: 3.5 h
AUC(0-inf) [1, 9]: 1.46 µg·h/mL
Cmax [1, 9]: 0.213 µg/mL
AUC(0-t) [1, 9]: 1.37 µg·h/mL
Tmax [1, 9]: 3 h
AUC(0-inf) [1, 10]: 1.2 µg·h/mL
Cmax [1, 10]: 0.157 µg/mL
AUC(0-t) [1, 10]: 1.11 µg·h/mL
Tmax [1, 10]: 3.5 h
Structure (SMILES): Nc1sc2c(c1C(=O)c1ccc(Cl)cc1)CCCC2 [T-62, (2-amino-4,5,6,7-tetrahydrobenzo[b]thiophen-3-yl)(4-chlorophenyl)-methanone]
Adverse side effects (adenosine A1 receptors; compared with administration of adenosine): devoid of the adverse side effects associated with administration of adenosine
Effect on inflammatory and neuropathic pain (adenosine A1 receptors; orally effective): reduce inflammatory and neuropathic pain
